Laboratory results as given in patent US20150335609A1, “COMBINATIONS OF HISTONE DEACETYLASE INHIBITOR AND PAZOPANIB AND USES THEREOF” (Pharmacyclics, Inc., priority 2012, published 2015).
Read-outs that look alike come from different tables or passages of the source.

Key:
primary human tumors = experiment: Ex vivo activity in primary human tumors; assay type: cell-based; settings: tumors from patients
[1] = Incidence of thrombocytopenia by dosing frequency; assay type: in vivo, human; settings: twice a day dosing compared to three times a day dosing
Experimental: In some embodiments, abexinostat (or a salt thereof; e.g., abexinostat HCl) is administered once per day during a cycle of abexinostat (or a salt thereof; e.g., abexinostat HCl). In some embodiments, abexinostat (or a salt thereof; e.g., abexinostat HCl) is administered twice per day during a cycle of abexinostat (or a salt thereof; e.g., abexinostat HCl). In some embodiments, abexinostat (or a salt thereof; e.g., abexinostat HCl) is administered three times per day during a cycle of abexinostat (or a salt thereof; e.g., abexinostat HCl).
In certain instances, thrombocytopenia is a side effect observed in humans that receive treatment with HDAC inhibitor compounds. Grade 4 thrombocytopenia typically includes instances when the human has a platelet count less than 25,000 per […]. Thrombocytopenia may be ameliorated or avoided by lowering the daily dose of abexinostat. In some embodiment, a method disclosed herein further comprises an abexinostat (or a salt thereof; e.g., abexinostat HCl) drug holiday following an abexinostat (or a salt thereof; e.g., abexinostat HCl) cycle.

[2] = test system: lung, colon, prostate, pancreatic and brain tumors; experiment: Mouse tumor models; assay type: in vivo
[3] = Clinical pharmacokinetics of abexinostat, IV and oral dosing; settings: human, in vivo; for bioavailability: humans; for AUC(0-inf): humans with cancer, solution form, read-out: Systemic exposure measured as AUC0-∞
Experimental: In clinical trials involving humans with cancer, abexinostat in solution form was administered at 2 mg/kg as a single oral dose and as multiple 2-hour IV infusion doses.

[4] = Pharmacokinetics in laboratory animals, fasted state versus fed state; assay type: in vivo
RAD51 = experiment: Pre-clinical models, expression of DNA repair genes
Excerpt: Following chemotherapy and/or radiation treatment, some patient's tumors may turn on certain genes as a strategy by the tumor to adapt to the therapy and become resistant to cell death. One example of a genetic change that occurs in many cancers is the activation of the DNA repair gene RAD51. In response to treatment with DNA-damaging chemotherapy or radiation, tumors will often turn on DNA repair genes (including RAD51) as an adaptive strategy to help the tumor repair the DNA damage done by these agents.

[5] = Site of absorption of abexinostat
tumor cell lines = experiment: In vitro activity against tumor cell lines; assay type: cell-based

With CN(C)Cc1c(C(=O)NCCOc2ccc(C(=O)NO)cc2)oc2ccccc12 [abexinostat, N-hydroxy-4-{2-[3-(N,N-dimethylaminomethyl)benzofuran-2-ylcarbonylamino]ethoxy}-benzamide] the “activity in primary human tumors” value (primary human tumors) was “active in primary human tumors from patients with colon, ovarian, lung and many hematological cancers”, the incidences of thrombocytopenia [1] was “reduces the incidences of thrombocytopenia” and the “efficacy in mouse tumor models” value [2] was “efficacious in mouse models of lung, colon, prostate, pancreatic and brain tumors”. For the same compound, the bioavailability ([3]; 2 mg/kg, administered as immediate release capsules or an oral solution) was roughly 27%, the AUC(0-inf) ([3]; 2 mg/kg, multiple 2-hour IV infusion doses) was 5.9 µM·h and the AUC(0-inf) ([3]; 2 mg/kg, single oral dose) was 1.45 µM·h. The bioavailability ([3]; from AUC0-∞ of oral versus IV dosing at 2 mg/kg) was roughly 27%, the “pharmacokinetics, fasted state versus fed state” value [4] was “difference in pharmacokinetics was observed” and the “effect on RAD51 (and other DNA repair genes)” value (RAD51) was “able to turn off RAD51”. The site of absorption [5] was “preferentially absorbed in the intestines” and the “activity against tumor cell lines” value (tumor cell lines) was “active against many tumor cell lines”.
